Reference: US12492202B2, “Macrocyclic PAD4 inhibitors useful as immunosuppressant” (BRISTOL-MYERS SQUIBB COMPANY, priority 2020, dated 2025)
pIC50: −log10 of the molar value.

Target: human PAD4 (hPAD4) (Homo sapiens (Human), UniProt Q9UM07)
Assay: RFMS Human PAD4 Functional Assay
Type: biochemical
Conditions: rapid-fire mass spectrum (RFMS) assay; 5 nM hPAD4 enzyme, 250 μM BAEE, 30 min preincubation at 37° C.
Procedure: RFMS Human PAD4 Functional Assay: Compounds were solubilized in 100% DMSO to achieve a 10 mM compound concentration. Compound stock solutions were stored at RT. A series of dilutions were prepared in DMSO and mixed 8 times with 20 μL mixing volume. Final top concentration of compound in the assay is 50 μM. Final assay conditions were as follows: • Reaction volume: 26 μl • Assay buffer: 25 mM hepes, pH 7.5, 5 mM NaCl, 1 mM DTT, 0.2 mg/ml BSA, 0.01% CHAPS, 50 μM Calcium, and 5 μM TPEN • Final concentrations: 5 nM hPAD4 enzyme, 250 μM BAEE, and 0.5% DMSO • Total incubation time: 30 mins compound and enzyme preincubation at 37° C., 90 min enzyme/substrate reaction, 30 min reaction with phenyl glyoxal at 37° C. • Stop solution: 40 μl 5% TCA in ACN 0.13 μL of compound solution was added to 13 μL of 10 nM PAD4 in assay buffer. After 30 min 13 μl of 500 μM of BAEE was added in 25 mM hepes, pH 7.5, 5 mM NaCl, 1 mM DTT, 0.2 mg/ml BSA, 0.01% CHAPS, 50 μM Calcium, 5 μM TPEN was added and the reaction incubated for 90 min at 37° C. The enzymatic reaction was quenched by addition of 15 μl of 6.1N TCA, 100% Final Concentration is 20%, 35 μl of 8.5 mM phenyl glyoxal (final concentration 4 mM) is then added and the reaction is incubated for 30 min at 37° C. After 30 minutes the plates are spun down to remove all precipitate. The enzyme reaction was quenched with an equal volume of methanol containing internal standard (modified citrulline). Samples were loaded onto the Rapid Fire RF300 system (Agilent) wherein they were first sipped for 1000 ms and then directly loaded to a C18 separations cartridge using a mixture of acetonitrile containing 0.01% formic acid for 3000 ms desalting. The flow rate of the mobile phase was 1.5 ml/min. Once the samples were eluted from the cartridge, a mobile phase of acetonitrile containing 0.01% formic acid was used to move the samples into the mass spectrometer for 4000 ms at a flow rate of 1.25 ml/min/Sciex API5500 triple quadrupole mass spectrometer (Applied Biosystems) equipped with ESI was used to analyze the peptidyl citrulline and internal standard ions. MRM transition of product and internal standard were monitored at m/z 424.5 to 350.4 and m/z 293 to 247 respectively. The dwell time for each transition was set at 200 ms, and the ESI voltage was used at 5500 with a source temperature of 400° C. Extracted ion peaks for each transition were integrated using the Rapid Fire Integrator software. Peak area of analyte was normalized with internal standard).

Sequence of human PAD4 (hPAD4) (Q9UM07 whole entry): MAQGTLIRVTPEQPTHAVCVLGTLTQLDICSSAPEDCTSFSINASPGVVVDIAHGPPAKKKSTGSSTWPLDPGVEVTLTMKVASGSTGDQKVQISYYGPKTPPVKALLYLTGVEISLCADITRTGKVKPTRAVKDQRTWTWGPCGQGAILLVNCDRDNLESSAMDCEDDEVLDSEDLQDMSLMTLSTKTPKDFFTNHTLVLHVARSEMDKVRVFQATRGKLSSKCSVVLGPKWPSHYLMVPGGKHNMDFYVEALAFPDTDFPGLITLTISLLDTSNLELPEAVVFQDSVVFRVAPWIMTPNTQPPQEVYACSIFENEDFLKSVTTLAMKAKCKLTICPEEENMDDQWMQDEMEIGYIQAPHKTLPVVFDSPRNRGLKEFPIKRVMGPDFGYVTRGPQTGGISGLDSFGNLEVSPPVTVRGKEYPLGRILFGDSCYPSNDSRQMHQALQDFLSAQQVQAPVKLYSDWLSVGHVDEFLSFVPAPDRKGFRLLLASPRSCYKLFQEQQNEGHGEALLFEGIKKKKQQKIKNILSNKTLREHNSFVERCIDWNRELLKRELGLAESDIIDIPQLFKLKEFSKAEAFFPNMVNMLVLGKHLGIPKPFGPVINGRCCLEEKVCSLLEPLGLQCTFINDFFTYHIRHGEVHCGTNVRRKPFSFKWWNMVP

Molecule: COc1cc(C(=O)N2CC3CCC2[C@@H]3N)cc2nc3n(c12)Cc1cc(ccn1)-c1ccccc1CCCCn1c-3cc2cccnc21 (stereo partly drawn) [Example 32, ((1R,4R,7R)-7-amino-2-azabicyclo[2.2.1]heptan-2-yl)(2^7-methoxy-1^1H,2^1H-1,2(2,1)-dipyrrolo[2,3-b]pyridina-4(2,4)-pyridina-5(1,2)-benzenacyclononaphane-2^5-yl)methanone]
- pIC50: 6.95

Molecule: COc1cc(C(=O)N2C[C@H](N)C[C@@H](F)C2)cc2nc3n(c12)Cc1cc(C(N)=O)cc(c1)-c1ccccc1CCCCn1c-3cc2cccnc21 [Example 28, 2^5-((3R,5R)-3-amino-5-fluoropiperidine-1-carbonyl)-2^7-methoxy-1^1H,2^1H-1,2(2,1)-dipyrrolo[2,3-b]pyridina-4(1,3),5(1,2)-dibenzenacyclononaphane-4^5-carboxamide]
- pIC50: 7.21

Molecule: COc1cc(C(=O)N2CC3CCC2[C@@H]3N)cc2nc3n(c12)Cc1cc(C#N)cc(c1)-c1ccccc1CCCCn1c-3cc2cccnc21 (stereo partly drawn) [Example 27, 2^5-((1R,4R,7R)-7-amino-2-azabicyclo[2.2.1]heptane-2-carbonyl)-2^7-methoxy-1^1H,2^1H-1,2(2,1)-dipyrrolo[2,3-b]pyridina-4(1,3),5(1,2)-dibenzenacyclononaphane-4^5-carbonitrile]
- pIC50: 7.31

Molecule: COc1cc(C(=O)N2C[C@H]3CC[C@@H]2[C@@H]3N)cc2nc3n(c12)CC1CC(=O)N(C1)c1ccccc1CCCCn1c-3cc2cccnc21 (single isomer, unassigned) [Example 38]
- pIC50: 7.11

Molecule: COc1cc(C(=O)N2C[C@H]3CC[C@@H]2[C@@H]3N)cc2nc3n(c12)Cc1cccc(c1)[C@H](O)[C@H](O)CCCCn1c-3cc2cccnc21 (single isomer, unassigned) [Example 46]
- pIC50: 7.35

Molecule: COc1cc(C(=O)N2C[C@H](N)C[C@@H](F)C2)cc2nc3n(c12)Cc1cnn(c1)CCCCCCCn1c-3cc2ccccc21 [Example 5, ((3R,5R)-3-amino-5-fluoropiperidin-1-yl)((Z)-2^7-methoxy-1^1H,2^1H,4^1H-2(2,1)-benzo[d]imidazola-1(2,1)-indola-4(4,1)-pyrazolacycloundecaphane-2^5-yl)methanone]
- pIC50: 7.43

Molecule: COc1cc(C(=O)N2C[C@H](N)C[C@@H](F)C2)cc2nc3n(c12)Cc1cccc(c1)-c1ccccc1CCCCn1c-3cc2ccccc21 [Example 21, ((3R,5R)-3-amino-5-fluoropiperidin-1l-yl)(2^7-methoxy-1^1IH,2^1H-2(2,1)-benzo[d]imidazola-1(2,1)-indola-4(1,3),5(1,2)-dibenzenacyclononaphane-2^5-yl)methanone]
- pIC50: 6.72

Molecule: COc1cc(C(=O)N2C[C@H](N)C[C@@H](F)C2)cc2nc3n(c12)Cc1ccn(n1)-c1ccccc1OCCCn1c-3cc2cccnc21 [Example 18, ((3R,5R)-3-amino-5-fluoropiperidin-1-yl)((E)-2^7-methoxy-1^1H,2^1H,4^1H-6-oxa-1,2(2,1)-dipyrrolo[2,3-b]pyridina-4(3,1)-pyrazola-5(1,2)-benzenacyclononaphane-2^5-yl)methanone]
- pIC50: 8.05

Molecule: COc1cc(C(=O)N2CC3CCC2[C@@H]3N)cc2nc3n(c12)Cc1cnn(c1)CCCCCCn1c-3cc2ccccc21 (stereo partly drawn) [Example 12, ((7R)-7-amino-2-azabicyclo[2.2.1]heptan-2-yl)((E)-2^7-methoxy-1^1H,2^1H,4^1H-2(2,1)-benzo[d]imidazola-1(2,1)-indola-4(3,1)-pyrazolacyclodecaphane-2^5-yl)methanone]
- pIC50: 7.33

Molecule: COc1cc(C(=O)N2C[C@H]3CC[C@@H]2[C@@H]3N)cc2nc3n(c12)Cc1cccc(c1)C1[C@@H](CCCCn2c-3cc3cccnc32)C1(F)F (stereo partly drawn) [Example 44, ((1R,4R,7R)-7-amino-2-azabicyclo[2.2.1]heptan-2-yl)((5^1S,5^2R)-5^3,5^3-difluoro-2^7-methoxy-1H,2^1H-1,2(2,1)-dipyrrolo[2,3-b]pyridina-4(1,3)-benzena-5(1,2)-cyclopropanacyclononaphane-2^5-yl)methanone]
- pIC50: 6.67

Molecule: COc1cc(C(=O)N2C[C@H](N)C[C@@H](F)C2)cc2nc3n(c12)Cc1cc(F)cc(c1)-c1ccccc1CCCCn1c-3cc2cccnc21 [Example 25, ((3R,5R)-3-amino-5-fluoropiperidin-1-yl)(4^5-fluoro-2^7-methoxy-1^1H,2^1H-1,2(2,1)-dipyrrolo[2,3-b]pyridina-4(1,3),5(1,2)-dibenzenacyclononaphane-2^5-yl)methanone]
- pIC50: 7.51

Molecule: COc1cc(C(=O)N2CC3CCC2[C@@H]3N)cc2nc3n(c12)Cc1cnn(c1)CCCCCCCn1c-3cc2ccccc21 (stereo partly drawn) [Example 6, ((7R)-7-amino-2-azabicyclo[2.2.1]heptan-2-yl)((Z)-2^7-methoxy-1^1H,2^1H,4^1H-2(2,1)-benzo[d]imidazola-1(2,1)-indola-4(4,1)-pyrazolacycloundecaphane-2^5-yl)methanone]
- pIC50: 7.51

Molecule: COc1cc(C(=O)N2CC3CCC2[C@@H]3N)cc2nc3n(c12)Cc1cncc(c1)-c1ccccc1CCCCn1c-3cc2cccnc21 (stereo partly drawn) [Example 31, ((1R,4R,7R)-7-amino-2-azabicyclo[2.2.1]heptan-2-yl)(2^7-methoxy-1^1H,2^1H-1,2(2,1)-dipyrrolo[2,3-b]pyridina-4(3,5)-pyridina-5(1,2)-benzenacyclononaphane-2^5-yl)methanone]
- pIC50: 8.00

Molecule: COc1cc(C(=O)N2C[C@H]3CC[C@@H]2[C@@H]3N)cc2nc3n(c12)Cc1cccc(c1)[C@H](O)[C@H](O)CCCCn1c-3cc2cccnc21 (relative stereo) [Example 47, ((1R,4R,7R)-7-amino-2-azabicyclo[2.2.1]heptan-2-yl)((5S,6R)-5,6-dihydroxy-27-methoxy-1^1H,2^1H-1,2(2,1)-dipyrrolo[2,3-b]pyridina-4(1,3)-benzenacyclodecaphane-25-yl)methanone]
- pIC50: 7.06

Molecule: COc1cc(C(=O)N2C[C@H]3CC[C@@H]2[C@@H]3N)cc2nc3n(c12)CCC(=O)Nc1ccccc1OCCCn1c-3cc2cccnc21 [Example 40, 21-((1R,4R,7R)-7-amino-2-azabicyclo[2.2.1]heptane-2-carbonyl)-19-methoxy-7,8,16,17-tetrahydro-6H-benzo[b]benzo[4,5]imidazo[1,2-h]pyrido[3′,2′:4,5]pyrrolo[2,1-j][1]oxa[4,8,11]triazacyclotetradecin-15(14H)-one]
- pIC50: 7.52

Molecule: COc1cc(C(=O)N2CC3CCC2[C@@H]3N)cc2nc3n(c12)Cc1cccc(c1)-c1ccccc1OCCCn1c-3cc2cccnc21 (stereo partly drawn) [Example 34, ((1R,4R,7R)-7-amino-2-azabicyclo[2.2.1]heptan-2-yl)(2^7-methoxy-1^1H,2^1H-6-oxa-1,2(2,1)-dipyrrolo[2,3-b]pyridina-4(1,3),5(1,2)-dibenzenacyclononaphane-2^5-yl)methanone]
- pIC50: 7.52

Molecule: ((1R,4R,7R)-7-amino-2-azabicyclo[2.2.1]heptan-2-yl)((cis)-6,7-dihydroxy-2^7-methoxy-1^1H,2^1H-1,2(2,1)-dipyrrolo[2,3-b]pyridina-4(1,3),5(1,2)-dibenzenacyclononaphane-2^5-yl)methanone [Example 39]
- pIC50: 7.59

Molecule: COc1cc(C(=O)N2C[C@H](N)C[C@@H](F)C2)cc2nc3n(c12)Cc1cnn(c1)-c1ccccc1OCCCn1c-3cc2ccccc21 [Example 3, ((3R,5R)-3-Amino-5-fluoropiperidin-1-yl)((Z)-2^7-methoxy-1^1H,2^1H,4^1H-6-oxa-2(2,1)-benzo[d]imidazola-1(2,1)-indola-4(4,1)-pyrazola-5(1,2)-benzenacyclononaphane-2^5-yl)methanone]
- pIC50: 7.72

Molecule: COc1cc(C(=O)N2C[C@H](N)C[C@@H](F)C2)cc2nc3n(c12)Cc1cc(C#N)cc(c1)-c1ccccc1CCCCn1c-3cc2cccnc21 [Example 26, 2^5-((3R,5R)-3-amino-5-fluoropiperidine-1 carbonyl)-2^7-methoxy-1^1H,2^1H-1,2(2,1)-dipyrrolo[2,3-b]pyridina-4(1,3),5(1,2)-dibenzenacyclononaphane-4^5-carbonitrile]
- pIC50: 7.68

Molecule: COc1cc(C(=O)N2CC3CCC2[C@@H]3N)cc2nc3n(c12)Cc1cnn(c1)CCCCCCCn1c-3cc2cccnc21 (stereo partly drawn) [Example 10, ((7R)-7-amino-2-azabicyclo[2.2.1]heptan-2-yl)((Z)-2^7-methoxy-1^1H,2^1H,4^1H-1,2(2,1)-dipyrrolo[2,3-b]pyridina-4(4,1)-pyrazolacycloundecaphane-2^5-yl)methanone]
- pIC50: 6.86

Molecule: COc1cc(C(=O)N2CC3CCC2[C@@H]3N)cc2nc3n(c12)Cc1ccn(n1)-c1ccccc1OCCCn1c-3cc2ccccc21 (stereo partly drawn) [Example 19, ((7R)-7-amino-2-azabicyclo[2.2.1]heptan-2-yl)((E)-2^7-methoxy-1^1H,2^1H,4^1H-6-oxa-2(2,1)-benzo[d]imidazola-1(2,1)-indola-4(3,1)-pyrazola-5(1,2)-benzenacyclononaphane-2^5-yl)methanone]
- pIC50: 8.30

Molecule: ((3R,5R)-3-amino-5- fluoropiperidin-1-yl)((Z)-2^7- methoxy-1^1H,2^1H,4^1H-2(2,1)- benzo[d]imidazola-1(2,1)-indola- 4(4,1)-pyrazolacyclodecaphane- 2^5-yl)methanone [Example 7]
- pIC50: 6.87

Molecule: COc1cc(C(=O)N2CC3CCC2[C@@H]3N)cc2nc3n(c12)Cc1cncc(c1)-c1ccccc1OCCCn1c-3cc2cccnc21 (stereo partly drawn) [Example 36, ((1R,4R,7R)-7-amino-2-azabicyclo[2.2.1]heptan-2-yl)(2^7-methoxy-1^1H,2^1H-6-oxa-1,2(2,1)-dipyrrolo[2,3-b]pyridina-4(3,5)-pyridina-5(1,2)-benzenacyclononaphane-2^5-yl)methanone]
- pIC50: 8.15

Molecule: COc1cc(C(=O)N2C[C@H](N)C[C@@H](F)C2)cc2nc3n(c12)Cc1cccc(c1)/C=C\CCCCn1c-3cc2cccnc21 [Example 51, ((3R,5R)-3-amino-5-fluoropiperidin-1-yl)((Z)-2^7-methoxy-1^1H,2^1H-1,2(2,1)-dipyrrolo[2,3-b]pyridina-4(1,3)-benzenacyclodecaphan-5-en-2^5-yl)methanone]
- pIC50: 6.92
